Measurements taken from patent US20230346827A1 (priority 2020, published 2023).

Test system: rats subjected to sTBI
Assay: sTBI rats, LMW-DS 1, 5, 15 mg/kg s.c. 30 min post-TBI: HPLC of brain energy metabolites, antioxidants, oxidative/nitrosative stress biomarkers (Example 4)
Format: in vivo, rat
Conditions: 1 mg/kg
Procedure: Male Wistar rats (n=160) of 300-350 g body weight were used in this study. They were fed with standard laboratory diet and water ad libitum in a controlled environment.
As the accepted anesthetic mixture, animals received 35 mg/kg b.w. ketamine and 0.25 mg/kg body weight midazolam by intramuscular injection. Diffuse sTBI was induced according to the “weight drop” impact acceleration model set up by Marmarou et al. J. Neurosurg. 1994, 80: 291-300. This model causes diffuse axonal injury and it is able to reproduce the physical and mechanical characteristics of the diffuse TBI in humans.
Severe TBI was induced by dropping a 450 g weight from 2 meters height onto the rat head protected by a helmet (metal disk previously fixed on the skull using dental cement) in order to uniformly distribute the mechanical force to the brain. Rats were placed prone on a bed of specific polyurethane foam inserted in a special container; this foam dissipates the major part of the potential energy (deriving from the mechanical forces) and prevents any rebound of the animal after the impact that could produce spinal damages.
After 2 or 7 days from TBI induction, rats were anesthetized again and then immediately sacrificed. These time points are coincident with the worst biochemical derangement (2 days) or, in the case of a mildly injured brain, with a full metabolic recovery (7 days).
The drug treatment consisted in a subcutaneous injection of 0.5 ml of LMW-DS (ILB®, Tikomed, Viken, Sweden, WO 2016/076780) and administered at 3 different concentrations (1, 5 and 15 mg/kg body weight), according to the schematic protocol described below. Sham-operated animals underwent the same procedure of anesthesia but TBI and were used as the control group.
Rats subjected to sTBI and receiving a single administration of LMW-DS after 30 minutes post-TBI, with sacrifice at 2 days post-TBI. Animals were divided in the following subgroups: • 1. 12 animals subjected to sTBI and treated with 1 mg/kg b.w. LMW-DS • 2. 12 animals subjected to sTBI and treated with 5 mg/kg b.w. LMW-DS • 3. 12 animals subjected to sTBI and treated with 15 mg/kg b.w. LMW-DS
Rats subjected to sTBI and receiving a single administration of LMW-DS after 30 minutes post-TBI, with sacrifice at 7 days post-TBI. Animals were divided in the following subgroups: • 1. 12 animals subjected to sTBI and treated with 1 mg/kg b.w. LMW-DS • 2. 12 animals subjected to sTBI and treated with 5 mg/kg b.w. LMW-DS • 3. 12 animals subjected to sTBI and treated with 15 mg/kg b.w. LMW-DS
Rats (n = 12) subjected to sTBI and receiving repeated administrations of the maximal dose of LMW-DS (15 mg/kg b.w.) after 30 minutes, 3 days and 5 days post-TBI, with sacrifice at 7 days post-TBI. Four additional rats were used for the histo-morphological studies. Total rats in this group: n=16
To minimize metabolite loss, an in vivo craniectomy was performed in all animals during anesthesia. The rat skull was carefully removed, the brain was exposed, sharply cut along the sagittal fissure and the two hemispheres were separated. The hemispheres dedicated to biochemical analyses were freeze-clamped by aluminum tongues pre-cooled in liquid nitrogen and then immersed in liquid nitrogen. The freeze-clamping procedure was introduced to accelerate freezing of the tissue, thus minimizing potential metabolite loss.
Tissue homogenization for metabolite analyses was effected as described below. After the wet weight (w.w.) determination, the frozen hemispheres were placed into 7 ml of ice-cold, nitrogen-saturated, precipitating solution (1:10 w/v) composed by CH3CN + 10 mM KH2PO4, pH 7.40, (3:1; v:v), and the homogenization was performed using an Ultra-Turrax homogenizer set at 24,000 rpm/min (Janke & Kunkel, Staufen, Germany). […]

sodium salt of dextran sulfate [LMW-DS] was tested, and the ADENOSINE (2 d post-sTBI) was 68.91 ± 16.50 nmol/g w.w, the ADP (2 d post-sTBI) was 333.90 ± 28.72 nmol/g w.w and the ADP-Ribose (2 d post-sTBI) was 25.69 ± 5.16 nmol/g w.w. For the same substance, the AMP (2 d post-sTBI) was 62.04 ± 7.46 nmol/g w.w, the “ASCORBIC ACID” value (2 d post-sTBI) was 2567.35 ± 147.76 nmol/g w.w and the ATP (2 d post-sTBI) was 1696.96 ± 99.43 nmol/g w.w. The Acetyl-CoA (2 d post-sTBI) was 27.74 ± 3.23 nmol/g w.w, the CDP choline (2 d post-sTBI) was 8.23 ± 1.22 nmol/g w.w and the CMP (2 d post-sTBI) was 29.39 ± 6.00 nmol/g w.w. It also gave a CREATININE (2 d post-sTBI) of 17.66 ± 3.29 nmol/g w.w, a CTP (2 d post-sTBI) of 33.01 ± 7.63 nmol/g w.w and a CYTIDINE (2 d post-sTBI) of 13.79 ± 2.49 nmol/g w.w. It also gave a CYTOSINE (2 d post-sTBI) of 13.47 ± 1.65 nmol/g w.w, a CoA-SH (2 d post-sTBI) of 9.42 ± 1.04 nmol/g w.w and a GDP (2 d post-sTBI) of 189.85 ± 26.23 nmol/g w.w. The “GDP Glucose” value (2 d post-sTBI) was 65.66 ± 41.61 nmol/g w.w, the GMP (2 d post-sTBI) was 205.06 ± 25.74 nmol/g w.w and the GSH (2 d post-sTBI) was 2337.06 ± 340.81 nmol/g w.w. The GTP (2 d post-sTBI) was 169.98 ± 17.93 nmol/g w.w, the GUANINE (2 d post-sTBI) was 1.62 ± 0.41 nmol/g w.w and the GUANOSINE (2 d post-sTBI) was 16.46 ± 2.73 nmol/g w.w. For the same substance, the HYPOXANTHINE (2 d post-sTBI) was 4.02 ± 0.66 nmol/g w.w, the IMP (2 d post-sTBI) was 45.97 ± 8.65 nmol/g w.w and the INOSINE (2 d post-sTBI) was 113.85 ± 14.84 nmol/g w.w. For the same substance, the MDA (2 d post-sTBI) was 44.00 ± 7.17 nmol/g w.w, the Malonyl-CoA (2 d post-sTBI) was 19.06 ± 4.04 nmol/g w.w and the NADH (2 d post-sTBI) was 9.42 ± 1.38 nmol/g w.w. The NADPH (2 d post-sTBI) was 13.07 ± 1.09 nmol/g w.w, the “NADP^+” value (2 d post-sTBI) was 11.79 ± 2.70 nmol/g w.w and the “NAD^+” value (2 d post-sTBI) was 325.87 ± 55.47 nmol/g w.w. The NO2 (2 d post-sTBI) was 158.36 ± 19.08 nmol/g w.w, the NO3 (2 d post-sTBI) was 99.16 ± 21.58 nmol/g w.w and the UDP (2 d post-sTBI) was 83.06 ± 8.52 nmol/g w.w. For the same substance, the UDP-Gal (2 d post-sTBI) was 118.50 ± 9.89 nmol/g w.w, the “UDP-GalNac” value (2 d post-sTBI) was 21.24 ± 3.13 nmol/g w.w and the UDP-Glc (2 d post-sTBI) was 45.14 ± 6.68 nmol/g w.w. It also gave a UDP-GlcNac (2 d post-sTBI) of 96.62 ± 8.80 nmol/g w.w, a UMP (2 d post-sTBI) of 148.04 ± 20.45 nmol/g w.w and a URACIL (2 d post-sTBI) of 17.18 ± 3.36 nmol/g w.w. For the same substance, the “URIC ACID” value (2 d post-sTBI) was 52.42 ± 10.75 nmol/g w.w, the URIDINE (2 d post-sTBI) was 79.93 ± 14.07 nmol/g w.w and the UTP (2 d post-sTBI) was 104.07 ± 16.34 nmol/g w.w. For the same substance, the XANTHINE (2 d post-sTBI) was 13.79 ± 1.43 nmol/g w.w, the β-PSEUDOURIDINE (2 d post-sTBI) was 11.64 ± 2.3 nmol/g w.w and the “NAD^+/NADH” value (2 d post-sTBI, adimensional ratio) was 33.91 ± 9.32. It also gave an ADENOSINE (7 d post-sTBI) of 26.08 ± 19.31 nmol/g w.w, an ADP (7 d post-sTBI) of 286.78 ± 38.19 nmol/g w.w and an ADP-Ribose (7 d post-sTBI) of 7.95 ± 1.99 nmol/g w.w. The AMP (7 d post-sTBI) was 43.13 ± 3.39 nmol/g w.w, the “ASCORBIC ACID” value (7 d post-sTBI) was 2177.22 ± 262.21 nmol/g w.w and the ATP (7 d post-sTBI) was 1792.01 ± 144.16 nmol/g w.w. For the same substance, the Acetyl-CoA (7 d post-sTBI) was 27.05 ± 4.61 nmol/g w.w, the CDP choline (7 d post-sTBI) was 6.26 ± 2.01 nmol/g w.w and the CMP (7 d post-sTBI) was 25.41 ± 10.81 nmol/g w.w. For the same substance, the CREATININE (7 d post-sTBI) was 6.57 ± 1.16 nmol/g w.w, the CTP (7 d post-sTBI) was 81.75 ± 31.55 nmol/g w.w and the CYTIDINE (7 d post-sTBI) was 29.67 ± 10.44 nmol/g w.w. It also gave a CYTOSINE (7 d post-sTBI) of 16.03 ± 3.44 nmol/g w.w, a CoA-SH (7 d post-sTBI) of 38.50 ± 4.94 nmol/g w.w and a GDP (7 d post-sTBI) of 121.72 ± 13.91 nmol/g w.w. The “GDP Glucose” value (7 d post-sTBI) was 112.22 ± 13.13 nmol/g w.w, the GMP (7 d post-sTBI) was 113.06 ± 53.51 nmol/g w.w and the GSH (7 d post-sTBI) was 1627.30 ± 214.51 nmol/g w.w. It also gave a GTP (7 d post-sTBI) of 438.65 ± 39.88 nmol/g w.w, a GUANINE (7 d post-sTBI) of 6.86 ± 2.92 nmol/g w.w and a GUANOSINE (7 d post-sTBI) of 19.11 ± 3.98 nmol/g w.w. For the same substance, the HYPOXANTHINE (7 d post-sTBI) was 16.97 ± 4.94 nmol/g w.w, the IMP (7 d post-sTBI) was 80.16 ± 20.53 nmol/g w.w and the INOSINE (7 d post-sTBI) was 124.27 ± 13.94 nmol/g w.w. For the same substance, the MDA (7 d post-sTBI) was 32.98 ± 5.44 nmol/g w.w, the Malonyl-CoA (7 d post-sTBI) was 5.43 ± 0.98 nmol/g w.w and the NADH (7 d post-sTBI) was 8.20 ± 1.41 nmol/g w.w. For the same substance, the NADPH (7 d post-sTBI) was 18.91 ± 4.39 nmol/g w.w, the “NADP^+” value (7 d post-sTBI) was 39.94 ± 14.65 nmol/g w.w and the “NAD^+” value (7 d post-sTBI) was 268.14 ± 37.97 nmol/g w.w. The NO2 (7 d post-sTBI) was 93.04 ± 20.16 nmol/g w.w, the NO3 (7 d post-sTBI) was 153.62 ± 26.24 nmol/g w.w and the UDP (7 d post-sTBI) was 38.59 ± 5.43 nmol/g w.w. It also gave a UDP-Gal (7 d post-sTBI) of 130.20 ± 8.95 nmol/g w.w and a UDP-GalNac (7 d post-sTBI) of 15.85 ± 4.54 nmol/g w.w.
